The values below come from ChEMBL document CHEMBL3352364 (Bioorg Med Chem Lett, 2014).

The species entered for series [1] is Rattus norvegicus. The settings on record: in vivo, ip.
Description: Toxicity in ip dosed Sprague-Dawley rat assessed as catalepsy by Bar test
For series [2], the species on record is Rattus norvegicus. Particulars: in vivo, ip. This is another data set of the same source.
Description: Toxicity in ip dosed Sprague-Dawley rat assessed as catalepsy by crossed-legs position test

On to `OC1(c2ccc(Cl)cc2)CC2CCC(C1)N2CCCSc1cccc(F)c1` (centres undefined), for which the MED in the series listed under Rattus norvegicus [1] and in the series listed under Rattus norvegicus [2] was 12.7 mg/kg in each case.

On to `OC1(c2ccc(Cl)cc2)CC2CCC(C1)N2CCCSc1ccc(F)cc1` (centres undefined), for which the MED in the series filed under Rattus norvegicus [1] came out at 0.578 mg/kg; in the series filed under Rattus norvegicus [2], 0.964 mg/kg.
